Data as given in patent US8030300B2, “Ligands for nicotinic acetylcholine receptors, and methods of making and using them” (priority 2003, dated 2011).
Where two headings read alike, the source gives them in different places.

Key:
Format in all cases: binding
[1] = target: T1, receptors in rat forebrain (mainly α4β2) (Rattus norvegicus, UniProt P09483+P12390); assay: biochemical; settings: Table 5, *Rat forebrain, mainly α4β2
T1 construct: from tissue; host or cells: rat forebrain homogenate
Excerpt: (§1) In order to assess the steric and hydropathic effects of the C-5 substituents of the pyridine on the binding affinity and subtype-selectivity at neuronal nicotinic acetylcholine receptors. […] The binding affinity ratios for a ligand, calculated from its affinities at an α subunit paired with either the β2 osubunit or the β4 subunit, represents a measure of the selectivity of that ligand with regard to the β subunits.
(§2) In Vitro Inhibition of ^3H-Epibatidin Binding
(§3) The high affinity binding site for ^3H-epibatidin is most certainly binding to the α4β2 subtype of nicotinic receptors. The identity of the low affinity site is still believed to be unknown.
(§4) Tissue preparation: Preparations may be performed at 0-4° C. unless otherwise indicated. […] The tissue suspension may then be centrifuged at 27,000×g for 10 min. The supernatant is then discarded and the pellet may then be washed three times by centrifugation at 27,000×g for 10 min in 20 mL fresh buffer, and the final pellet may be resuspended in fresh buffer (400 mL per g of original tissue) and used for binding assays.
(§5) Assay: Aliquots of 2.0 mL homogenate may be added to 0.100 mL of test solution and 0.100 mL of ^3H-epibatidin (0.3 nM, final concentration), mixed and incubated for 60 min at room temperature. […] The amount of radioactivity on the filters may be determined by conventional liquid scintillation counting. Specific binding is total binding minus non-specific binding.

[2] = target: T1, receptors in rat forebrain (mainly α4β2); settings: Table 6, [3H]-EB 0.099 nM, 0.091 nM, n = 1
α4β2 nAChR subtype = target: T2, α4β2 nAChR subtype (Rattus norvegicus, UniProt P09483+P12390); assay: biochemical
T2 construct: expressed in transfected cells
Excerpt: as §1

α3β4 nAChR subtype = target: T3, α3β4 nAChR subtype (Rattus norvegicus, UniProt P04757+P12392); assay: biochemical
T3 construct: expressed in transfected cells
Excerpt: as §1

α2β2 nAChR subtype = target: T4, α2β2 nAChR subtype (Rattus norvegicus, UniProt P12389+P12390); assay: biochemical
T4 construct: expressed in transfected cells
Excerpt: as §1

α2β4 nAChR subtype = target: T5, α2β4 nAChR subtype (Rattus norvegicus, UniProt P12389+P12392); assay: biochemical
T5 construct: expressed in transfected cells
Excerpt: as §1

α3β2 nAChR subtype = target: T6, α3β2 nAChR subtype (Rattus norvegicus, UniProt P04757+P12390); assay: biochemical
T6 construct: expressed in transfected cells
Excerpt: as §1

α4β4 nAChR subtype = target: T7, α4β4 nAChR subtype (Rattus norvegicus, UniProt P09483+P12392); assay: biochemical
T7 construct: expressed in transfected cells
Excerpt: as §1

[3] = system: receptors in rat forebrain (mainly α4β2); assay: biochemical; settings: Table 3; ratio of the corresponding Ki values
Excerpt: as §1, §2, §3, §4, §5

[4] = Table 5, rat nAChR subtypes, read-out: Ki α4β2
[5] = Table 6, [3H]-EB 0.099 nM, 0.091 nM, ligand 0.00197-100 μM, n = 1, read-out: Ki α4β2
[6] = Table 5, rat nAChR subtypes, read-out: Ki α3β4
[7] = Table 6, [3H]-EB 0.099 nM, 0.091 nM, ligand 0.00197-100 μM, n = 1, read-out: Ki α3β4
[8] = Table 5, rat nAChR subtypes, read-out: Ki α2β2
[9] = Table 6, [3H]-EB 0.099 nM, 0.091 nM, ligand 0.00197-100 μM, n = 1, read-out: Ki α2β2
[10] = Table 5, rat nAChR subtypes, read-out: Ki α2β4
[11] = Table 6, [3H]-EB 0.099 nM, 0.091 nM, ligand 0.00197-100 μM, n = 1, read-out: Ki α2β4
[12] = Table 5, rat nAChR subtypes, read-out: Ki α3β2
[13] = Table 6, [3H]-EB 0.099 nM, 0.091 nM, ligand 0.00197-100 μM, n = 1, read-out: Ki α3β2
[14] = Table 5, rat nAChR subtypes, read-out: Ki α4β4
[15] = Table 6, [3H]-EB 0.099 nM, 0.091 nM, ligand 0.00197-100 μM, n = 1, read-out: Ki α4β4

T5 sequence (P12389 28-511): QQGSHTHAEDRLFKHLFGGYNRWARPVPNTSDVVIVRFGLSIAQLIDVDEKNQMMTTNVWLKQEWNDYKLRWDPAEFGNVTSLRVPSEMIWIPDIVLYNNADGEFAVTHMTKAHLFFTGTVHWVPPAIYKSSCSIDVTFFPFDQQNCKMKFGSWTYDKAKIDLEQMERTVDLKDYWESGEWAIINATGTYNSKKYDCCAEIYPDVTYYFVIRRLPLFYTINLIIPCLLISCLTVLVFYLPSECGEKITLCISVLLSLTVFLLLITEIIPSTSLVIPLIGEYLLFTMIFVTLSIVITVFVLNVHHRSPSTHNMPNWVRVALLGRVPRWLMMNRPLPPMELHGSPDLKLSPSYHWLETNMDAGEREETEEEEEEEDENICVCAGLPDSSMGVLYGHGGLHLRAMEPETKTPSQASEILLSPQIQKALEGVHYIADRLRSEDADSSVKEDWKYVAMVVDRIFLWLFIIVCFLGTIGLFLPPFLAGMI
T5 sequence (P12392 21-495): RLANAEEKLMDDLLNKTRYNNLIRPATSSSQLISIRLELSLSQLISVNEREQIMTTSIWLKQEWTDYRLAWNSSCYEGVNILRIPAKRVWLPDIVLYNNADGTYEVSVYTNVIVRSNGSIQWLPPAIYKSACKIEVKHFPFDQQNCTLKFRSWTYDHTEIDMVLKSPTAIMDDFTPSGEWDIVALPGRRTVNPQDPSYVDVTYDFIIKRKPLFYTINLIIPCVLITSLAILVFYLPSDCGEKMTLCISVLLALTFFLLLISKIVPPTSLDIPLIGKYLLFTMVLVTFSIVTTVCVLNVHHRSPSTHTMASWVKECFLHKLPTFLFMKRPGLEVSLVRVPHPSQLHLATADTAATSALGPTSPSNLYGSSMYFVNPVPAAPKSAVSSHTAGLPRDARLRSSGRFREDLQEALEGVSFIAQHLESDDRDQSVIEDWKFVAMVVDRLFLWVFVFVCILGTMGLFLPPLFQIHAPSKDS
T6 sequence (P12390 25-500): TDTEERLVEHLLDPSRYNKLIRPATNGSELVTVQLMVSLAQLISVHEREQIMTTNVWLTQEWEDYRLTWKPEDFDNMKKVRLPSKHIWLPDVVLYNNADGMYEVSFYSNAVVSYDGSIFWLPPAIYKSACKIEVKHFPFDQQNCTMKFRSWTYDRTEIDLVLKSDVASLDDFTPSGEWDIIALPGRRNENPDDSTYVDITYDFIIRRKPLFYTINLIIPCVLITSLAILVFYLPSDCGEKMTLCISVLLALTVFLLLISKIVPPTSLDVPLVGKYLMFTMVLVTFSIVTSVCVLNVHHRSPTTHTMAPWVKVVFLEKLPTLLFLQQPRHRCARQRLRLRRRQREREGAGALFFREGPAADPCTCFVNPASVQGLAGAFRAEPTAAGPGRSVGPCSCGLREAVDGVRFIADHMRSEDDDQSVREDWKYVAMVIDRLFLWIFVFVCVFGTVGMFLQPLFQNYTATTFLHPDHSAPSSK
T6 sequence (P04757 26-499): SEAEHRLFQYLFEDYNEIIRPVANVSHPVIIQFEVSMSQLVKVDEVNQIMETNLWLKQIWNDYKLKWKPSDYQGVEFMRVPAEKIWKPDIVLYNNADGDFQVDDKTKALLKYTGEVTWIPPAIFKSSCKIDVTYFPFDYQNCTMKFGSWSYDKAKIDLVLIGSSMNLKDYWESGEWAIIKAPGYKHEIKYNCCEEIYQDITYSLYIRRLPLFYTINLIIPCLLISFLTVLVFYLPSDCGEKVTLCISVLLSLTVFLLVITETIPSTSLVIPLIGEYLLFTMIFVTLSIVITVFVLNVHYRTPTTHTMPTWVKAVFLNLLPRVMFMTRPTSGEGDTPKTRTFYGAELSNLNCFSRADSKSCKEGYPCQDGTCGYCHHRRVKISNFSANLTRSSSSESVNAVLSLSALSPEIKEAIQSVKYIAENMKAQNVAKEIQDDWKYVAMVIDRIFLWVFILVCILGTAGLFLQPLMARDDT
T2 sequence (P12390 25-500): as the sequence (P12390 25-500) above
T2 sequence (P09483 31-630): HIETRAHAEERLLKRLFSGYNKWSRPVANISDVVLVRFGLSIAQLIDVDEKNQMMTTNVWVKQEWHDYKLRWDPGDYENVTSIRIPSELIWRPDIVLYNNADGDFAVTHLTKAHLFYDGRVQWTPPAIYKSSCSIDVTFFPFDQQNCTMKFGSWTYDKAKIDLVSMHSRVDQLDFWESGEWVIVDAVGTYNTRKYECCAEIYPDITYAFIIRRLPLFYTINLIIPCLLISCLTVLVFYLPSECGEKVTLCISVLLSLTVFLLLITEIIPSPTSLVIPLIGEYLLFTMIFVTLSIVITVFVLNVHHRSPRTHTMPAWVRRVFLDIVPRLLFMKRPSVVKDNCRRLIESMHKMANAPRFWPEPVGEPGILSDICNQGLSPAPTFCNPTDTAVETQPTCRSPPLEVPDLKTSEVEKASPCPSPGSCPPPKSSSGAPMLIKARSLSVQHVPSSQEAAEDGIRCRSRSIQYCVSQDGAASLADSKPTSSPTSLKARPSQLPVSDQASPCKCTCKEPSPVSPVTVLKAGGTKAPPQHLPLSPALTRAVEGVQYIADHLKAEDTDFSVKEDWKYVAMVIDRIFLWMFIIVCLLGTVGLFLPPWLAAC
T4 sequence (P12390 25-500): as the sequence (P12390 25-500) above
T4 sequence (P12389 28-511): as the sequence (P12389 28-511) above
T1 sequence (P09483 31-630): as the sequence (P09483 31-630) above
T1 sequence (P12390 25-500): as the sequence (P12390 25-500) above
T3 sequence (P04757 26-499): as the sequence (P04757 26-499) above
T3 sequence (P12392 21-495): as the sequence (P12392 21-495) above
T7 sequence (P12392 21-495): as above
T7 sequence (P09483 31-630): as the sequence (P09483 31-630) above

SMILES: CN1CCC[C@H]1COc1cncc(C#CCCCCO)c1 [Ligand 16, 5-(6-Hydroxy-1-hexynyl)-3-(1-methyl-2(S) -pyrrolidinylmethoxy)pyridine]
- Ki ([1]; read-out: Ki α4β2*): 3.56 nM
- Ki [2]: 3.56 nM
- Ki (α4β2 nAChR subtype; [4]): 0.81 nM
- Ki (α4β2 nAChR subtype; [5]): 0.81 nM
- Ki (α3β4 nAChR subtype; [6]): 40200 nM
- Ki (α3β4 nAChR subtype; [7]): 40200 nM
- Ki (α2β2 nAChR subtype; [8]): 2.87 nM
- Ki (α2β2 nAChR subtype; [9]): 2.87 nM
- Ki (α2β4 nAChR subtype; [10]): 3230 nM
- Ki (α2β4 nAChR subtype; [11]): 3230 nM
- Ki (α3β2 nAChR subtype; [12]): 12.6 nM
- Ki (α3β2 nAChR subtype; [13]): 12.6 nM
- Ki (α4β4 nAChR subtype; [14]): 1270 nM
- Ki (α4β4 nAChR subtype; [15]): 1270 nM

SMILES: CN1CCC[C@H]1COc1cncc(CCCCCCO)c1 [Ligand 19, 5-(6-Hydroxy-1-hexanyl)-3-(1-methyl-2(S) -pyrrolidinylmethoxy)pyridine]
- Ki ([1]; read-out: Ki α4β2*): 5.39 nM
- Ki [2]: 5.39 nM
- Ki (α4β2 nAChR subtype; [4]): 0.75 nM
- Ki (α4β2 nAChR subtype; [5]): 0.754 nM
- Ki (α3β4 nAChR subtype; [6]): 20000 nM
- Ki (α3β4 nAChR subtype; [7]): 20000 nM
- Ki (α2β2 nAChR subtype; [8]): 3.33 nM
- Ki (α2β2 nAChR subtype; [9]): 3.33 nM
- Ki (α2β4 nAChR subtype; [10]): 1150 nM
- Ki (α2β4 nAChR subtype; [11]): 1150 nM
- Ki (α3β2 nAChR subtype; [12]): 13.4 nM
- Ki (α3β2 nAChR subtype; [13]): 13.4 nM
- Ki (α4β4 nAChR subtype; [14]): 968 nM
- Ki (α4β4 nAChR subtype; [15]): 968 nM

SMILES: FCCCCC#Cc1cncc(OC[C@@H]2CCN2)c1 [Ligand 41]
- Affinity ratio (α3β4/Forbrain) [3]: 15,166
- affinities for α4β2 nAChR subtype (in words) (α4β2 nAChR subtype): subnanomolar

SMILES: C#Cc1cncc(OC[C@@H]2CCCN2C)c1 [Ligand 18, 5-(1-Ethynyl)-3-(1-methyl-2(S)-pyrrolidinylmethoxy)pyridine]
- Ki ([1]; read-out: Ki α4β2*): 3.65 nM
- Ki [2]: 3.65 nM
- Ki (α4β2 nAChR subtype; [4]): 1.02 nM
- Ki (α4β2 nAChR subtype; [5]): 1.02 nM
- Ki (α3β4 nAChR subtype; [6]): 3080 nM
- Ki (α3β4 nAChR subtype; [7]): 3080 nM
- Ki (α2β2 nAChR subtype; [8]): 0.75 nM
- Ki (α2β2 nAChR subtype; [9]): 0.749 nM
- Ki (α2β4 nAChR subtype; [10]): 434 nM
- Ki (α2β4 nAChR subtype; [11]): 434 nM
- Ki (α3β2 nAChR subtype; [12]): 10.7 nM
- Ki (α3β2 nAChR subtype; [13]): 10.7 nM
- Ki (α4β4 nAChR subtype; [14]): 473 nM
- Ki (α4β4 nAChR subtype; [15]): 473 nM

SMILES: CN1CCC[C@H]1COc1cncc(C#CCCCCCCCCO)c1 [Ligand 17, 5-(10-Hydroxy-1-decynyl)-3-(1-methyl-2(S) -pyrrolidinylmethoxy)pyridine]
- Ki ([1]; read-out: Ki α4β2*): 21.7 nM
- Ki [2]: 21.7 nM
- Ki (α4β2 nAChR subtype; [4]): 6.5 nM
- Ki (α4β2 nAChR subtype; [5]): 6.5 nM
- Ki (α3β4 nAChR subtype; [6]): 62700 nM
- Ki (α3β4 nAChR subtype; [7]): 62700 nM
- Ki (α2β2 nAChR subtype; [8]): 26.8 nM
- Ki (α2β2 nAChR subtype; [9]): 26.8 nM
- Ki (α2β4 nAChR subtype; [10]): 7800 nM
- Ki (α2β4 nAChR subtype; [11]): 7800 nM
- Ki (α3β2 nAChR subtype; [12]): 52.1 nM
- Ki (α3β2 nAChR subtype; [13]): 52.1 nM
- Ki (α4β4 nAChR subtype; [14]): 3560 nM
- Ki (α4β4 nAChR subtype; [15]): 3560 nM

SMILES: CN1CCC[C@H]1COc1cncc(C#CCO)c1 [Ligand 14, 5-(3-Hydroxy-1-propargyl)-3-(1-methyl-2(S)-pyrrolidinylmethoxy)pyridine]
- Ki ([1]; read-out: Ki α4β2*): 3.16 nM
- Ki [2]: 3.16 nM
- Ki (α4β2 nAChR subtype; [4]): 0.954 nM
- Ki (α4β2 nAChR subtype; [5]): 0.954 nM
- Ki (α3β4 nAChR subtype; [6]): 18200 nM
- Ki (α3β4 nAChR subtype; [7]): 18200 nM
- Ki (α2β2 nAChR subtype; [8]): 2.43 nM
- Ki (α2β2 nAChR subtype; [9]): 2.43 nM
- Ki (α2β4 nAChR subtype; [10]): 1880 nM
- Ki (α2β4 nAChR subtype; [11]): 1880 nM
- Ki (α3β2 nAChR subtype; [12]): 7.64 nM
- Ki (α3β2 nAChR subtype; [13]): 7.64 nM
- Ki (α4β4 nAChR subtype; [14]): 1690 nM
- Ki (α4β4 nAChR subtype; [15]): 1690 nM

SMILES: OCCCCC#Cc1cncc(OC[C@@H]2CCN2)c1 [Ligand 26]
- Affinity ratio (α3β4/Forbrain) [3]: 53,778
- selectivity at α4β2 vs ganglionic α3β4 receptors (α4β2 nAChR subtype; text b206): 54,000 fold
- more selective for α4β2 over α3β4 than the corresponding parent compounds 7, 8, and 2 (α4β2 nAChR subtype; text b210): 2 orders of magnitude

SMILES: OC1CC2NC1CC2c1ccc(Cl)nc1 (stereo not drawn) [Ligand 7, 2-exo-(2-Chloro-5-pyridyl)-5-endo-hydroxyl-7-azabicyclo[2.2.1]heptane]
- Ki ([1]; Ki α4β2*): 134 nM
- Ki (α4β2 nAChR subtype; Ki α4β2, Table 5, rat nAChR subtypes): 70.9 nM
- Ki (α3β4 nAChR subtype; Ki α3β4, Table 5, rat nAChR subtypes): 916 nM
- Ki (α2β2 nAChR subtype; Ki α2β2, Table 5, rat nAChR subtypes): 93.7 nM
- Ki (α2β4 nAChR subtype; Ki α2β4, Table 5, rat nAChR subtypes): 238 nM
- Ki (α3β2 nAChR subtype; Ki α3β2, Table 5, rat nAChR subtypes): 285 nM
- Ki (α4β4 nAChR subtype; Ki α4β4, Table 5, rat nAChR subtypes): 247 nM
